Data on two substances can be found in US20060211606A1, “Peptides” (priority 2005, published 2006).

In experiment [1] the test system is CA1 hippocampal neurones. The experiment is described as follows: Gerbil model of brain ischemia, intact CA1 hippocampal neurones. The note with it: 25 μg injection, 7 days after the insult. Format: in vivo, Mongolian gerbils.
Description: Other experiments were carried out using a Gerbil model of brain ischemia.
In the gerbil brain, bilateral ligation of the common carotid arteries invariably produces specific hippocampal lesions: in the CA1 region, pyramidal neurones start to die 3-4 days after ischemia.
Male Mongolian gerbils weighing 50-60 g were used. The ischemic insult was performed by 5 min. ligation of the common carotid arteries under halotane in N2O:O2 (70:30) anaesthesia in strictly controlled normothermic conditions as previously described (Domańiska-Janik et al., 2004). The cerebral blood flow was continuously monitored by laser Doppler flowmetry (Muro, Inc.). […] Sham operated animals were injected with the same dose of the peptide.
The animals were allowed a recovery period of one week, then were perfused with ice-cold 4% paraformaldehyde in PBS under pentobarbital anaesthesia. The histological evaluation was performed on paraffin-embedded and fixed, 10 mm-thick sections stained by hematoxylline/eosine. The extent of cell damage in the CA1 hippocampal region was quantified, under a Zeiss Axioscop 2, as the mean number of the persisted, intact neurons in the coronal sections. At least three defined 300 μm fields of the CA1 region were captured using a MC 10095 camera (Carl Zeiss Jena GmbH) and counted in a computer-assisted image analysis system (KS 300, Carl Zeiss Jena GmbH).
Experiment [2] has as its system C2C12 muscle cells. The experiment is described as follows: C2C12 proliferation, Alamar Blue assay. Format: cell-based, mouse. The note with it: 2000 cells per well; 2, 5, 50 and 100 ng/ml; medium with IGF-I 2 ng per ml; 36 hours. How it is done: (A) DMGF and CMGF Peptides: C2C12 Cells were provided at 2000 cell/well, in a medium containing DMEM (1000 mg/L glucose), plus BSA(100 ug/ml), plus IGF-I (2 ng per ml) and incubated for 36 hours. Cell proliferation was then assessed using an Alamar Blue assay. […] Y-axis values are fluorescence (wavelength of excitation 535 nm, measurement at 590 nm; mean plus standard error) in an Alamar Blue assay.
The 8 amino acid peptides described in 1.3.1 above and referred to in FIG. 8A as DMGF and CMGF were tested for the ability to induce proliferation of C2C12 muscle cells at a density of 2000 cells per well in a medium containing DMEM (1000 mg/L glucose), BSA (10 ug/ml) and IGF-I (2 ng per ml). Concentrations of 2, 5, 50 and 100 ng/ml of DMGF and CMGF were tested (See the left-hand and middle sets of results in FIG. 8), along with 2, 5, 50 and 100 ng/ml IGF-I alone (See the right-hand set of results in FIG. 8). After 36 hours incubation, an Alamar Blue assay was used to assess the level of cell proliferation achieved. A control containing only the medium was also provided.
On the technique in general: Resazurin is reduced to fluorescent resorufin, in cell work by metabolically active cells.

The subject of experiment [3] is Human Skeletal Muscle Myoblasts (HSMM). The experiment is described as follows: HSMM proliferation, BrdU incorporation. The note with it: 48 hours; A5 significant (P<0.1) at doses of 10 ng/ml and below; IGF-I alone 0.1, 10 and 100 ng/ml. Format: cell-based. How it is done:
(A) Peptide A5: HSMM cells at 500 cells/well. Cultivation was carried out for 24 hours in 10% FCS, followed by two washes in serum free medium, stimulation for 48 hours and then treatment with BrdU for 5 hours. Concentrations of 0.1, 1, 10, 100 and 500 ng/ml of peptide A5 were tested, along with 0.1, 1, 10 and 100 ng/ml IGF-I. BrdU incorporation was measured to assess the level of cell proliferation achieved. Controls containing medium only, no cells (BLK), background staining (BG) and 10% FBS were also provided. Values on the Y-axis are for fluorescence (absorbence at 370 nm; mean plus standard error across 4 wells). The first five columns relate to peptide A5 at concentrations of 0.1, 1, 10, 100 and 500 ng/ml. The next column relates to the control containing medium only. The next three relate to IGF-I (See Example 1.5) alone at concentrations of 100, 10 and 0.1 ng/ml. The next three relate to controls containing 10% FBS, background staining and no cells respectively. * means P<0.05 compared to medium only control.
(B) Peptide AS: HSMM cells at 500 cells/well. […] Concentrations of 0.1, 1, 10, 100 and 500 ng/ml of peptide AS in combination with 2 ng/ml IGF-I were tested, along with 0.1, 1, 10 and 100 ng/ml IGF-I. BrdU incorporation was measured to assess the level of cell proliferation achieved. […] Values on the Y-axis are for fluorescence (absorbence at 370 nm; mean plus standard error across 4 wells). […]
(A) Peptide AS: HSMM cells at 500 cells/well. […] Concentrations of 0.1, 1, 10, 100 and 500 ng/ml of peptide AS were tested, along with 0.1, 1, 10 and 100 ng/ml IGF-I. BrdU incorporation was measured to assess the level of cell proliferation achieved. […] Values on the Y-axis are for fluorescence (absorbence at 370 nm; mean plus standard error across 4 wells). […]
(B) Peptide A5: HSMM cells at 500 cells/well. […] Concentrations of 0.1, 1, 10, 100 and 500 ng/ml of peptide AS in combination with 2 ng/ml IGF-I were tested, along with 0.1, 1, 10 and 100 ng/ml IGF-I. BrdU incorporation was measured to assess the level of cell proliferation achieved. […]
Background: Incorporation of labelled thymidine or its analogues reports DNA synthesis.

Experiment [4] concerns infarcted murine heart. The experiment is described as follows: Murine myocardial infarction (LAD ligation), pressure/volume loops. The experiment is classed as in vivo, mice. The note with it: murine MI by LAD ligation; systemic administration. As for the experimental part:
All panels show pressure (mmHg) on the Y-axis and Relative Volume Units on the X-axis.
Additional experiments were carried out on mice. In these studies the MI was produced by ligating the left anterior descending (LAD) coronary artery of the murine heart. This causes dilation of the left ventricle, the progression of which leads to heart failure. […] Therefore there is considerable potential for treatment of patients immediately following a heart attack.

*1 amine or outer side, *2 acyl side, *3 side chain or, on linkers, in order; H or OH if unused. [ ]: non-standard residue; d: D form. PEG (Jeffamine) = not defined here; Suc = O=C(CCC(=O)[*:2])[*:1]

For the substance “IGF-I: IGF-I receptor binding domain encoded by Exons 3 and 4, common to all splice variants, approximately 70 amino acids [reference compound]”, in experiment [1], the “CA1 neurones as % of the control neuronal cell number (side not stated)” value is reported as 15.8% and the “number of CA1 neurones left (side not stated)” value is on record as 19.2±7.3 neurones. In experiment [2], the “proliferation of C2C12 cells (Alamar Blue fluorescence)” value is “statistically different to the control value”. Besides, the “proliferation of HSMM (BrdU incorporation), used in isolation” value in experiment [3] is “no significant effect”.
For the substance “stabilised peptide: SEQ ID NO: 15 with D-Arginine at positions 14 and 15, N-terminus attached to PEG (Jeffamine) via succinic acid bridge, amidated at C-terminus ({PEG (Jeffamine)-Suc}-YQPPSTNKNTKSQ[dR][dR]KGSTFEEHK-NH2; reading uncertain)”, in experiment [4], the “strength and function of the heart by pressure/volume loops” value is “markedly improved the strength and function of the heart”.
